# Assays:
# [1] = tested on: patients with negative symptoms of schizophrenia; test: Integrated analysis (pooled ITT): rate of relapse and time to relapse; type: in vivo, human
# Procedure: “Time to relapse” in the DB period is defined as the number of days from Day 1 to the date of early trial termination due to relapse. […] Treatment differences in time to relapse in the DB period were analyzed using a Cox-regression model with treatment group and Baseline PANSS total score as covariates. For the analysis of the OL period, this analysis was repeated to analyze treatment differences in time to relapse in the study. For the OL period analysis, patients who were not observed to relapse in the study were censored on the date on which they ended the study. Kaplan-Meier plots of time to relapse in the DB period, OL period, and in the study were generated.
# In some embodiments, for any of the methods disclosed herein, a relapse refers to a patient who is terminated early during treatment (or a study trial) due to worsening of psychosis or an adverse event or generalized symptom in Table 1.
# The Efficacy data from Study Nos. 1 and 2 were pooled. The majority of patients in the pooled ITT population completed the DB period (502 patients overall, 66.3%), with similar rates in each treatment group (placebo: 69.8%, 32 mg Roluperidone: 65.3%, and 64 mg Roluperidone: 63.8%) (Table 12). The majority (62.7%) of those who completed the DB period entered the OL period. The most common reason for discontinuation during the DB period among patients overall was withdrawal of consent (15.6%), followed by adverse events (7.3%) and lack of efficacy (5.4%) (Table 12). […] Approximately twice as many patients in the Roluperidone groups (32 mg: 8.5%; 64 mg: 9.1%) discontinued due to adverse events compared with patients in the placebo group (4.3%). More patients in the placebo group discontinued due to lack of efficacy (6.7%) than in the Roluperidone groups (32 mg: 4.4%; 64 mg: 5.1%). The low number of patients who discontinued due to lack of efficacy or withdrawal of consent probably reflects a low level of worsening of positive symptoms.
# [2] = tested on: patients with negative symptoms of schizophrenia; test: Study #2 (MIN-101C07): Personal and Social Performance (PSP); type: in vivo, human; set-up: key to PSP total score, LS mean difference vs placebo in change from Baseline / Mean change in PSP Total score from Active Baseline / Change from Baseline LS Mean: PSP Total Score (ITT) / Change from Baseline LS Mean: PSP Total Score (mITT): PSP Total score points (1–100 scale, higher = better functioning); conditions: for Change from Baseline LS Mean: PSP Total Score (ITT) / Change from Baseline LS Mean: PSP domain Disturbing and Aggressive Behaviors / Change from Baseline LS Mean: PSP domain Personal and Social Relationships / Change from Baseline LS Mean: PSP domain Self-Care / Change from Baseline LS Mean: PSP domain Socially Useful Activities / Effect Size (Cohen's d) vs Placebo: PSP Total Score (ITT) / Effect Size (Cohen's d) vs Placebo: PSP domain Disturbing and Aggressive Behaviors / Effect Size (Cohen's d) vs Placebo: PSP domain Personal and Social Relationships / Effect Size (Cohen's d) vs Placebo: PSP domain Self-Care / Effect Size (Cohen's d) vs Placebo: PSP domain Socially Useful Activities: ITT; for Mean change in PSP Total score from Active Baseline: Week 52, OL
# From the text: The PSP is a validated clinician-rated scale intended to reflect real-life situations that measures personal and social functioning in 4 domains: (a) socially useful activities, (b) personal and social relationships, (c) self-care, and (d) disturbing and aggressive behaviors. The score is based on the assessment of a patient's performance in the 4 domains. The PSP Total score is a single measurement of functioning ranging from 1 to 100, where a higher score represents better functioning. A score of 91 to 100 indicates excellent functioning in all 4 main areas; the patient is held in high consideration for their good qualities, copes adequately with life problems, and is involved in a wide range of interests and activities. A score of 1 to 10 indicates a lack of autonomy in basic functioning with extreme behaviors but without survival risk (score 6 to 10) or with survival risk (score 1 to 5). […] Review of the relevant scientific literature and the analysis of the psychometric properties of the 4 domains that result in the generation of the PSP Total score were supportive of the appropriateness and cross-cultural applicability of the use of the PSP in drug development for the indication of negative symptoms of schizophrenia The PSP was assessed at the timepoints described in Table 6. The changes from Baseline in the PSP Total score and individual domain scores after 12 weeks of treatment were exploratory efficacy endpoints in Study MIN-101C03, and the Total score was the key secondary efficacy endpoint and the PSP domain scores were exploratory endpoints in Study MIN-101C07.
# Study #2 (also referred to as “MIN101C07”) was a Phase 3, randomized, DB, placebo-controlled, parallel-group 12-week study to evaluate the efficacy and safety of Roluperidone in patients ≥18 years to ≤55 years with negative symptoms of schizophrenia, followed by a 40-week OL extension. The study consisted of a pretreatment screening period of up to 28 days (including an antipsychotic medication washout period), a 12-week, DB, placebo-controlled period, and a 40-week OL period. Eligible patients (with moderate to severe negative symptoms of schizophrenia and stable positive symptoms but without severe symptoms of suspiciousness, agitation, hostility, uncooperativeness, or poor impulse control) were randomized 1:1:1 to receive Roluperidone 32 mg QD, Roluperidone 64 mg QD (GR01/B formulation, see U.S. Pat. No. 11,464,744), or placebo, orally, for 12 weeks. […] During the 40-week OL treatment extension, patients who were initially randomized to Roluperidone 32 mg or 64 mg continued treatment with the same dose, while patients who were initially randomized to placebo crossed over to Roluperidone 32 mg or 64 mg in a 1:1 ratio.
# [3] = Roluperidone Total (N = 502), DB period
substance,measurement,setting,value
"1H-Isoindol-1-one,2-[ [1-[2-(4-fluorophenyl)-2-oxoethyl]-4-piperidinyl]methyl]-2,3-dihydro-, hydrochloride, hydrate (1:1:2) [Roluperidone]",Patients who experienced relapse (%),"[1]; 32 mg (N = 248), DB period",8%
same,Patients who experienced relapse (number),"[1]; 32 mg (N = 248), DB period",19
same,Mean number of days to relapse,"[1]; 32 mg group, OL period",234.8 days
same,Patients who experienced relapse (%),"[1]; 32 mg throughout, OL period",7%
same,Patients who experienced relapse (number),"[1]; 32 mg throughout, OL period",10
same,"Days to relapse (Kaplan-Meier estimates), Mean","[1]; 32 mg, DB period",128.3 days
same,"Days to relapse (Kaplan-Meier estimates), Median","[1]; 32 mg, DB period",137.0 days
same,Patients who experienced relapse (%),"[1]; 64 mg (N = 254), DB period",6%
same,Patients who experienced relapse (number),"[1]; 64 mg (N = 254), DB period",16
same,Mean number of days to relapse,"[1]; 64 mg group, OL period",188.1 days
same,Patients who experienced relapse (%),"[1]; 64 mg throughout, OL period",8%
same,Patients who experienced relapse (number),"[1]; 64 mg throughout, OL period",12
same,"Days to relapse (Kaplan-Meier estimates), Mean","[1]; 64 mg, DB period",81.4 days
same,Patients who experienced relapse (%),[1]; [3],7%
same,Patients who experienced relapse (number),[1]; [3],35
same,"Days to relapse (Kaplan-Meier estimates), Mean","[1]; Roluperidone Total, DB period",128.9 days
same,"Days to relapse (Kaplan-Meier estimates), Median","[1]; Roluperidone Total, DB period",137.0 days
same,Patients who experienced relapse (%),"[1]; placebo to 32 mg, OL period",11%
same,Patients who experienced relapse (number),"[1]; placebo to 32 mg, OL period",9
same,Patients who experienced relapse (%),"[1]; placebo to 64 mg, OL period",1%
same,Patients who experienced relapse (number),"[1]; placebo to 64 mg, OL period",1
same,Mean number of days to relapse,"[1]; total placebo to Roluperidone group, OL period",256.3 days
same,Effect Size (Cohen's w) vs Placebo: 7-Point improvement in PSP Total Score responders,"[2]; 32 mg QD, Week 12 DB",0.03
same,Effect Size (Cohen's w) vs Placebo: 10-Point improvement in PSP Total Score responders,"[2]; 32 mg QD, Week 12 DB",0.01
same,Number of Patients with 7-Point improvement in PSP Total Score at Week 12,"[2]; 32 mg QD, Week 12 DB",37/116
same,Number of Patients with 10-Point improvement in PSP Total Score at Week 12,"[2]; 32 mg QD, Week 12 DB",26/116
same,Patients with 7-Point improvement in PSP Total Score at Week 12 (%),"[2]; 32 mg QD, Week 12 DB",(32%)
same,Patients with 10-Point improvement in PSP Total Score at Week 12 (%),"[2]; 32 mg QD, Week 12 DB",(22%)
same,Change from Baseline LS Mean: PSP Total Score (ITT),"[2]; 32 mg QD, Week 12 DB",4.5
same,Change from Baseline LS Mean: PSP domain Disturbing and Aggressive Behaviors,"[2]; 32 mg QD, Week 12 DB",0.0
same,Change from Baseline LS Mean: PSP domain Personal and Social Relationships,"[2]; 32 mg QD, Week 12 DB",−0.4
same,Change from Baseline LS Mean: PSP domain Self-Care,"[2]; 32 mg QD, Week 12 DB",−0.4
same,Change from Baseline LS Mean: PSP domain Socially Useful Activities,"[2]; 32 mg QD, Week 12 DB",−0.3
same,Effect Size (Cohen's d) vs Placebo: PSP Total Score (ITT),"[2]; 32 mg QD, Week 12 DB",0.07
same,Effect Size (Cohen's d) vs Placebo: PSP domain Disturbing and Aggressive Behaviors,"[2]; 32 mg QD, Week 12 DB",0.00
same,Effect Size (Cohen's d) vs Placebo: PSP domain Personal and Social Relationships,"[2]; 32 mg QD, Week 12 DB",0.15
same,Effect Size (Cohen's d) vs Placebo: PSP domain Self-Care,"[2]; 32 mg QD, Week 12 DB",0.15
same,Effect Size (Cohen's d) vs Placebo: PSP domain Socially Useful Activities,"[2]; 32 mg QD, Week 12 DB",0.02
same,Change from Baseline LS Mean: PSP Total Score (mITT),"[2]; 32 mg QD, Week 12 DB",4.4
same,Effect Size (Cohen's d) vs Placebo: PSP Total Score (mITT),"[2]; 32 mg QD, Week 12 DB",0.07
same,Effect Size (Cohen's w) vs Placebo: 7-Point improvement in PSP Total Score responders,"[2]; 64 mg QD, Week 12 DB",0.13
same,Effect Size (Cohen's w) vs Placebo: 10-Point improvement in PSP Total Score responders,"[2]; 64 mg QD, Week 12 DB",0.10
same,Number of Patients with 7-Point improvement in PSP Total Score at Week 12,"[2]; 64 mg QD, Week 12 DB",50/122
same,Number of Patients with 10-Point improvement in PSP Total Score at Week 12,"[2]; 64 mg QD, Week 12 DB",37/122
same,Change from Baseline LS Mean: PSP Total Score (ITT),"[2]; 64 mg QD, Week 12 DB",6.1
same,Change from Baseline LS Mean: PSP domain Disturbing and Aggressive Behaviors,"[2]; 64 mg QD, Week 12 DB",0.0
same,Change from Baseline LS Mean: PSP domain Personal and Social Relationships,"[2]; 64 mg QD, Week 12 DB",−0.3
same,Change from Baseline LS Mean: PSP domain Self-Care,"[2]; 64 mg QD, Week 12 DB",−0.3
same,Change from Baseline LS Mean: PSP domain Socially Useful Activities,"[2]; 64 mg QD, Week 12 DB",−0.4
same,Effect Size (Cohen's d) vs Placebo: PSP Total Score (ITT),"[2]; 64 mg QD, Week 12 DB",0.27
same,Effect Size (Cohen's d) vs Placebo: PSP domain Disturbing and Aggressive Behaviors,"[2]; 64 mg QD, Week 12 DB",−0.07
same,Effect Size (Cohen's d) vs Placebo: PSP domain Personal and Social Relationships,"[2]; 64 mg QD, Week 12 DB",0.00
same,Effect Size (Cohen's d) vs Placebo: PSP domain Self-Care,"[2]; 64 mg QD, Week 12 DB",0.04
same,Effect Size (Cohen's d) vs Placebo: PSP domain Socially Useful Activities,"[2]; 64 mg QD, Week 12 DB",0.18
same,Change from Baseline LS Mean: PSP Total Score (mITT),"[2]; 64 mg QD, Week 12 DB",6.2
same,Effect Size (Cohen's d) vs Placebo: PSP Total Score (mITT),"[2]; 64 mg QD, Week 12 DB",0.29
same,"PSP total score, LS mean difference vs placebo in change from Baseline","[2]; 64 mg, Week 12, ITT",2.2
same,"PSP Total score, course in OL period",[2]; OL period,continued improvement was seen
same,Mean change in PSP Total score from Active Baseline,[2]; placebo to 32 mg group,11.7
same,Mean change in PSP Total score from Active Baseline,[2]; placebo to 64 mg group,11.8
